{"source": "the supplement of paper PMC10307832", "assay_in_all_cases": "relative viability (nuclei count vs DMSO), 5 days (fraction); higher = more cells survive", "key": {"NCI-H2126": {"test_system": "NCI-H2126", "summary_of_the_method": "(§1)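 The day after seeding in 1536-well plates, lung cancer cell lines were treated by pin tool with a single drug, or with a fixed anchor-drug dose together with five library-drug doses (not always all listed) in √10 steps. After 5 days, a combined fix-and-stain solution (final 0.05% Triton X-100, 1% formaldehyde, 1 ug/ml Hoechst) was added. Nuclei counted on 4× images gave relative viability as treated counts over vehicle counts, reported as the median of duplicate plates.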"}, "NCI-H2228": {"test_system": "NCI-H2228", "summary_of_the_method": "as §1"}, "NCI-H2342": {"test_system": "NCI-H2342", "summary_of_the_method": "as §1"}, "NCI-H23": {"test_system": "NCI-H23", "summary_of_the_method": "as §1"}, "NCI-H2405": {"test_system": "NCI-H2405", "summary_of_the_method": "as §1"}, "NCI-H322M": {"test_system": "NCI-H322M", "summary_of_the_method": "as §1"}, "NCI-H460": {"test_system": "NCI-H460", "summary_of_the_method": "as §1"}, "NCI-H647": {"test_system": "NCI-H647", "summary_of_the_method": "as §1"}, "NCI-H650": {"test_system": "NCI-H650", "summary_of_the_method": "as §1"}, "NCI-H661": {"test_system": "NCI-H661", "summary_of_the_method": "as §1"}, "NCI-H838": {"test_system": "NCI-H838", "summary_of_the_method": "as §1"}, "PC-14": {"test_system": "PC-14", "summary_of_the_method": "as §1"}}, "data": [{"smiles": "Cc1csc(=NC2CCCCC2)n1/N=C/c1ccc(O)c(O)c1O", "note": "[MIM1] + N=C(N)NC(=N)NCCc1ccccc1 [Phenformin] (partner 250 µM)", "values": [{"measurement": "relative viability", "setting": "NCI-H2126; first compound 2 µM", "result": 0.54}, {"measurement": "relative viability", "setting": "NCI-H2126; first compound 6.325 µM", "result": 0.45}, {"measurement": "relative viability", "setting": "NCI-H2126; first compound 20 µM", "result": 0.391}, {"measurement": "relative viability", "setting": "NCI-H2228; first compound 0.2 µM", "result": 0.389}, {"measurement": "relative viability", "setting": "NCI-H2228; first compound 0.6325 µM", "result": 0.272}, {"measurement": "relative viability", "setting": "NCI-H2228; first compound 2 µM", "result": 0.332}, {"measurement": "relative viability", "setting": "NCI-H2228; first compound 6.325 µM", "result": 0.145}, {"measurement": "relative viability", "setting": "NCI-H2228; first compound 20 µM", "result": 0.0959}, {"measurement": "relative viability", "setting": "NCI-H2342; first compound 0.2 µM", "result": 0.656}, {"measurement": "relative viability", "setting": "NCI-H2342; first compound 0.6325 µM", "result": 0.543}, {"measurement": "relative viability", "setting": "NCI-H2342; first compound 2 µM", "result": 0.584}, {"measurement": "relative viability", "setting": "NCI-H2342; first compound 6.325 µM", "result": 0.53}, {"measurement": "relative viability", "setting": "NCI-H2342; first compound 20 µM", "result": 0.785}, {"measurement": "relative viability", "setting": "NCI-H23; first compound 0.2 µM", "result": 0.809}, {"measurement": "relative viability", "setting": "NCI-H23; first compound 2 µM", "result": 0.711}, {"measurement": "relative viability", "setting": "NCI-H23; first compound 6.325 µM", "result": 0.598}, {"measurement": "relative viability", "setting": "NCI-H23; first compound 20 µM", "result": 0.2}, {"measurement": "relative viability", "setting": "NCI-H2405; first compound 0.2 µM", "result": 0.402}, {"measurement": "relative viability", "setting": "NCI-H2405; first compound 0.6325 µM", "result": 0.375}, {"measurement": "relative viability", "setting": "NCI-H2405; first compound 2 µM", "result": 0.385}, {"measurement": "relative viability", "setting": "NCI-H2405; first compound 6.325 µM", "result": 0.386}, {"measurement": "relative viability", "setting": "NCI-H2405; first compound 20 µM", "result": 0.371}, {"measurement": "relative viability", "setting": "NCI-H322M; first compound 0.2 µM", "result": 0.905}, {"measurement": "relative viability", "setting": "NCI-H322M; first compound 0.6325 µM", "result": 0.809}, {"measurement": "relative viability", "setting": "NCI-H322M; first compound 2 µM", "result": 0.766}, {"measurement": "relative viability", "setting": "NCI-H322M; first compound 6.325 µM", "result": 0.735}, {"measurement": "relative viability", "setting": "NCI-H322M; first compound 20 µM", "result": 0.36}, {"measurement": "relative viability", "setting": "NCI-H460; first compound 0.2 µM", "result": 0.497}, {"measurement": "relative viability", "setting": "NCI-H460; first compound 0.6325 µM", "result": 0.531}, {"measurement": "relative viability", "setting": "NCI-H460; first compound 2 µM", "result": 0.387}, {"measurement": "relative viability", "setting": "NCI-H460; first compound 6.325 µM", "result": 0.172}, {"measurement": "relative viability", "setting": "NCI-H460; first compound 20 µM", "result": 0.0325}, {"measurement": "relative viability", "setting": "NCI-H647; first compound 0.2 µM", "result": 0.602}, {"measurement": "relative viability", "setting": "NCI-H647; first compound 0.6325 µM", "result": 0.431}, {"measurement": "relative viability", "setting": "NCI-H647; first compound 6.325 µM", "result": 0.4}, {"measurement": "relative viability", "setting": "NCI-H647; first compound 20 µM", "result": 0.0969}, {"measurement": "relative viability", "setting": "NCI-H650; first compound 0.2 µM", "result": 0.477}, {"measurement": "relative viability", "setting": "NCI-H650; first compound 0.6325 µM", "result": 0.389}, {"measurement": "relative viability", "setting": "NCI-H650; first compound 2 µM", "result": 0.474}, {"measurement": "relative viability", "setting": "NCI-H650; first compound 6.325 µM", "result": 0.412}, {"measurement": "relative viability", "setting": "NCI-H650; first compound 20 µM", "result": 0.241}, {"measurement": "relative viability", "setting": "NCI-H661; first compound 0.2 µM", "result": 0.254}, {"measurement": "relative viability", "setting": "NCI-H661; first compound 0.6325 µM", "result": 0.28}, {"measurement": "relative viability", "setting": "NCI-H661; first compound 2 µM", "result": 0.274}, {"measurement": "relative viability", "setting": "NCI-H661; first compound 6.325 µM", "result": 0.26}, {"measurement": "relative viability", "setting": "NCI-H661; first compound 20 µM", "result": 0.24}, {"measurement": "relative viability", "setting": "NCI-H838; first compound 0.2 µM", "result": 0.543}, {"measurement": "relative viability", "setting": "NCI-H838; first compound 0.6325 µM", "result": 0.621}, {"measurement": "relative viability", "setting": "NCI-H838; first compound 2 µM", "result": 0.562}, {"measurement": "relative viability", "setting": "NCI-H838; first compound 6.325 µM", "result": 0.354}, {"measurement": "relative viability", "setting": "NCI-H838; first compound 20 µM", "result": 0.14}, {"measurement": "relative viability", "setting": "PC-14; first compound 0.2 µM", "result": 0.662}, {"measurement": "relative viability", "setting": "PC-14; first compound 0.6325 µM", "result": 0.575}, {"measurement": "relative viability", "setting": "PC-14; first compound 2 µM", "result": 0.558}, {"measurement": "relative viability", "setting": "PC-14; first compound 6.325 µM", "result": 0.328}, {"measurement": "relative viability", "setting": "PC-14; first compound 20 µM", "result": 0.237}]}]}
